Source: patent US20240262934A1, “STARCH-INDOLE-ACID DERIVATIVE, PREPARATION METHOD THEREFOR, AND USE THEREOF” (SHANDONG SHANWEI IMMUNOTECH CO., LTD., priority 2021, published 2024)
Read-outs that look alike come from different tables or passages of the source. Blank lines part the entries; values can stand above or below the molecule they belong to.

Experiments:
[1] = tested on: dextran sulfate sodium (DSS)-induced acute ulcerative colitis; experiment: DSS-induced acute ulcerative colitis in mice: body weight, colon length, DAI, colon status, tissue sections; assay type: in vivo; conditions: tested as 15% HAMSIAA-0.49 in feed
Procedure: After the end of the experiment, a disease active index (DAI) of mice was evaluated, mouse colons were taken to measure their lengths, and a colon status of the mice was evaluated by sectioning, and the levels of cytokines IL-10, IL-6, IL-22, etc. in colon tissues of the mice were detected. The effect of […] on the prevention and treatment of DSS-induced acute ulcerative colitis in mice was finally evaluated by these indicators.

[2] = tested on: cytokines IL-10, IL-6, IL-1, IL-22 in mouse colon tissue; experiment: Cytokine levels in colon tissue of DSS colitis mice; assay type: in vivo; conditions: 1.5% HAMSIAA-0.32 in feed, vs model group
Procedure: After the end of the experiment, a disease active index (DAI) of mice was evaluated, mouse colons were taken to measure their lengths, and a colon status of the mice was evaluated by sectioning, and the levels of cytokines IL-10, IL-6, IL-22, etc. in colon tissues of the mice were detected.

[3] = tested on: Systemic lupus erythematosus model (MRL/lpr); experiment: Systemic lupus erythematosus model mice: kidney pathology, skin damage, spleen and lymph nodes; assay type: in vivo; conditions: 1.5% HAMSIAA-0.32 in feed, 14 weeks
Procedure: • 1. Mouse food was prepared from the prepared […] in a certain addition ratio, and SLE model mice and control mice were purchased from Changzhou Cavens Experimental Animal Co., Ltd, aged 4-6 weeks. All mice were randomly divided into 4 groups: • Control group (MRL/MPJ); • Systemic lupus erythematosus model group (MRL/lpr); • Prednisone group (MRL/lpr+Prednisone); and • […] group ([…]). The […] group was given a special feed in which […] was added in a certain proportion for 14 weeks. Kidney tissues were collected after the end of the experiment. • 2. […] After the experiment, the spleens, cervical lymph nodes, and perirenal lymph nodes of each group for mice in this embodiment were collected.

[4] = tested on: ANA, Anti-dsDNA lgG2a, and Anti-Smith immune antibodies; experiment: Serum immune antibodies in SLE mice by ELISA; assay type: in vivo; conditions: MRL/lpr mice; 1.5% HAMSIAA-0.32; after one month of treatment and after the experiment
Text: After one month of treatment with HAMSIAA, blood serum samples from each group for mice were collected once. After the experiment, blood serum samples from each group of mice were collected again. The expression levels of ANA, Anti-dsDNA lgG2a, and Anti-Smith immune antibodies in the blood serum were detected by ELISA technique.

[5] = tested on: TNF-α, IFN-γ, IL-4, IFN-α, IL-6 and IL-22; experiment: Serum cytokine content in SLE mice; assay type: in vivo; conditions: MRL/lpr mice; 1.5% HAMSIAA-0.32; after the experiment
[6] = tested on: B cells and CD4+CXCR5+ Tfh in the spleen of MRL/lpr mice; experiment: B cells, Tfh cells and BAFF in spleens of SLE mice; assay type: in vivo; conditions: 1.5% HAMSIAA-0.32, after the experiment
Procedure: After the experiment, the expression levels of CD3^− B220^+ B cells, B220^+IgM^+ B cells, B220^+CD138^+ B cells, and B220^+IgD^+ B cells in the spleen for mice in each group in this embodiment were tested. […] Wherein,
After the experiment, the expression levels of CD4^+CXCR5^+ Tfh in the spleens for mice in each group and BAFF in mice in each group in this Example were tested.

[7] = mouse, in vivo
Procedure: (§1) A high performance liquid chromatography-tandem mass spectrometry (HPLC-MS/MS) technique was used to detect the content of metabolites IAA/IPA in each sample separately. Determination of the content of IAA/IPA in mouse feces: methanol was added into the collected feces, then vortexing, ultrasound extraction, and centrifuging were performed, a supernatant was taken to obtain an extract, the obtained extract was treated, IAA/IPA internal standards (IAA-d5/IPA-d2) were added for calibration, then purification was performed by using a small HLB solid-phase extraction column (pretreated with 5 mL of methanol and 5 mL water, then rinsed with 5 mL of a methanol/water mixed solution and 5 mL of water, an effluent being discarded, and finally eluted with 5 mL of methanol before use), and an eluate was analyzed by HPLC-MS/MS to detect IAA/IPA. Determination of the content of IAA/IPA in the hepatic portal blood and the peripheral blood: whole blood collected was allowed to stand and centrifuged at low temperature, and a supernatant was taken to obtain serum, and then an internal standard was added into the serum, purification was performed by using a solid-phase extraction column, and metabolites IAA/IPA in an eluate were detected by HPLC-MS/MS by the same method as described above. Determination of the content of IAA/IPA in the colon tissues: methanol was added into colon tissues collected, ultrasonically disrupted and further uniformly ground, then vortexing, ultrasound extraction, and centrifuging were performed, a supernatant was taken to obtain an extract, and then an internal standard was added into serum, purification was performed by using a solid-phase extraction column, and the concentration of IAA/IPA in the extract was detected by HPLC-MS/MS by the same method as described above.
(§2) The experiments were divided into 5 groups in total: • 1. Blank control group; • 2. […] IAANa-containing water drinking group (with the IAANa concentration of 2.68 mg/mL, average daily drinking of 5 mL of water per mouse, and a total intake of 0.068 mmol IAANa); • 4. Gavage group (with the IAANa concentration of 67 mg/mL, daily gavage of 0.2 mL, and a total intake of 0.068 mmol IAANa); and • 5. Intraperitoneal injection group (with the IAANa concentration of 67 mg/mL, daily injection of 0.2 mL, and a total intake of 0.068 mmol IAANa).

[8] = Concentration of IPA in feces of mice fed HAMSIPA feed; assay type: in vivo; conditions: 15% and 1.5% in feed, one week
Procedure: Indole acid derivatized starches with different degrees of substitution were added to a mouse feed in a ratio of 15% and 1.5%, respectively, and feces were taken to test the IPA content after mice were fed with a special feed prepared for one week.

[9] = Concentration of IAA in hepatic portal blood serum for different modes of administration; assay type: in vivo, mice
Text: Blank control group; • 2.

[10] = Concentration of IAA/IPA in colonic contents for different modes of administration; conditions: for concentration of IAA in feces (colonic contents, FIG. 8), improvement compared with the control group: 0.068 mmol IAANa
Procedure: as §1, §2

[11] = IAANa-containing drinking water

Molecule: indoleacetic acid derivatized high-amylose maize starch [HAMSIAA]
severity of DSS-induced ulcerative colitis [1]: effectively alleviate
level of anti-inflammatory cytokine IL-10 in the colon tissue ([2]; FIG. 17): significantly increased
level of pro-inflammatory cytokine IL-6 in the colon tissue ([2]; FIG. 18): significantly reduced
level of pro-inflammatory cytokine in the colon tissue ([2]; FIG. 19): significantly reduced
content of IL-22 in the colon tissue ([2]; FIG. 21): significantly increased
HE staining of kidney tissues (glomerular volume, cellular proliferation, inflammatory cell infiltration) [3]: alleviated
Renal interstitial scores (renal interstitial nephritis) [3]: significantly attenuates
cervical lymph node weight (lymph nodes enlargement) [3]: significantly reduce
glomerular scores (glomerular injury) [3]: significantly attenuates
glomerulonephritis and interstitial nephritis / symptoms in SLE mice compared with the SLE mouse model group [3]: effectively alleviate
perirenal lymph node weight (lymph nodes enlargement) [3]: significantly reduce
scores of the degree of skin damage [3]: significantly reduces
expression level of ANA in blood serum [4]: significantly reduce
expression level of Anti-Smith in blood serum [4]: significantly reduce
expression level of Anti-dsDNA lgG2a in blood serum [4]: significantly reduce
IFN-α expression level in blood serum [5]: significantly reduce
IFN-γ expression level in blood serum [5]: significantly reduce
IL-4 expression level in blood serum [5]: significantly reduce
IL-6 expression level in blood serum [5]: significantly reduce
TNF-α expression level in blood serum [5]: significantly reduce
expression level of the anti-inflammatory cytokine IL-22 in blood serum [5]: promotes
expression level (concentration) of BAFF [6]: inhibit
expression level of CD4+CXCR5+ Tfh in the spleen [6]: inhibit
proliferation and differentiation of B cells in the spleen (CD3− B220+ B cells) [6]: inhibit
proportion of B220+CD138+ B cells (plasma cells) in the spleen [6]: reduce
proportion of B220+IgD+ B cells in the spleen [6]: increase
proportion of B220+IgM+ B cells in the spleen [6]: increase
concentration of IPA in the colonic contents compared with the control group [7]: significantly increased

Molecule: Indolepropionic Acid Derivatized High-Amylose Maize Starch [HAMSIPA]
concentration of IPA in the feces compared with the HAMS group [8]: significantly increased

concentration of IAA in the hepatic portal blood compared with the control group [9, 11]: significant increase
concentration of IAA in the hepatic portal blood compared with the control group ([9]; gavage): significant increase
concentration of IAA in the hepatic portal blood compared with the control group ([9]; intraperitoneal injection): significant increase
concentration of IPA in the colonic contents compared with the control group [10, 11]: not significantly changed
concentration of IAA in feces (colonic contents, FIG. 8), improvement compared with the control group ([10]; IAANa-containing drinking water, 2.68 mg/mL): about 30 times
concentration of IPA in the colonic contents compared with the control group ([10]; gavage): not significantly changed
concentration of IAA in feces (colonic contents, FIG. 8), improvement compared with the control group ([10]; gavage, 67 mg/mL, 0.2 mL daily): about 7 times
concentration of IPA in the colonic contents compared with the control group ([10]; intraperitoneal injection): not significantly changed
concentration of IAA in feces (colonic contents, FIG. 8), improvement compared with the control group ([10]; intraperitoneal injection, 67 mg/mL, 0.2 mL daily): about 7 times
Molecule: O=C([O-])Cc1c[nH]c2ccccc12.[Na+] [IAANa]
